Converted amounts (≈) assume the structure as drawn. “And” between values parts separate entries of the source, which are not always exact repeats. Identical values can stand only once. Like-named read-outs stand apart in the source and are kept apart here. Where a SMILES comes first, the peptide text is derived from it. [ ]: non-standard residue; d: D form. The star is where a group is joined. NMeF = CN[C@@H](Cc1ccccc1)C(=O)O; NMeK = CN[C@@H](CCCCN)C(=O)O; Decanoyl = CCCCCCCCCC(=O)*

In general, MIC refers to the smallest concentration in the dilution series that meets the test's criterion for growth inhibition. Low values mean inhibition by little substance, high ones a need for much substance. The IC50 is the concentration that inhibits the measured activity by half.

Data set [1] can be described thus: Critical micelle concentration by conductimetry in Milli-Q water. It is filed as physicochemical. Conditions: 25 °C. The procedure: On the other hand, acylation confers that the peptide has capacity to self-assemble into nanostructures, resulting in a surfactant-like structure, which may affect the extent of peptide insertion and disruption of bacterial membrane integrity. In this work, the CMC of the lipopeptides was determined by conductimetry in Milli-Q water. All the lipopeptides adopted a micellar assembly with CMC values ranging from 2.0 to 5.7 mM (Table 1). […] This effect appeared to be more important when substitution by an N-methyl amino acid was performed on amino acids located on the non-polar face of the amphipathic helix (CMC values of C10:0-A2(8-NMePhe) = 2.01 mM). For all the lipopeptides, the CMC values remained above the MIC values, which could indicate that these molecules interact with the cell membrane as monomers and, consequently, that this property would not be necessary for antimicrobial activity. This notion is in concordance with reports in the literature on short cationic lipopeptides.
A lipopeptide solution was prepared in Milli Q water, and the specific conductivity of each lipopeptide solution, in a concentration ranging from 0.06 to 18 mg/mL, was measured using a drop conductivity meter (HORIBA, Kyoto, Japan), at 25 °C. Conductivity values were plotted vs. lipopeptide concentration (mS × cm^−1 vs. mg/mL), and the CMC was graphically determined.

The test system of data set [2] is E. coli ATCC 35218. The data set is classed as cell-based, Escherichia coli. The settings on record: ATCC 35218, 24 h. As for the experimental part:
(§1) The test was conducted in triplicate.

Data set [3] concerns P. aeruginosa ATCC 27853. It is filed as cell-based, Pseudomonas aeruginosa. Conditions: ATCC 27853, 24 h. The procedure:
as §1

Data set [4] concerns S. aureus ATCC 25923. It is filed as cell-based, Staphylococcus aureus. Conditions: ATCC 25923, 24 h. The procedure: as §1
In data set [5] the test system is E. faecalis ATCC 29212. The data set is classed as cell-based, Enterococcus faecalis. Conditions: ATCC 29212, 24 h. As for the experimental part:
as §1

Data set [6] deals with C. albicans PEEC 2. It is filed as cell-based, Candida albicans. The settings on record: PEEC 2, 24 h. As for the experimental part:
(§2) Each inoculum was taken and the cellular concentration was adjusted to 2 × 10^3 CFU/mL in Sabouraud Dextrose Broth (SDB) (Biokar Diagnostics, Cedex, France). Next, 50 µL of these inocula was added to 50 µL of peptide solution in serial 2-fold dilutions. […] […] The test was conducted in triplicate.

Data set [7] relates to C. tropicalis DBFIQ 3. It is filed as cell-based, Candida tropicalis. The settings on record: DBFIQ 3, 24 h. The procedure: as §2
The subject of data set [8] is Gram (+) bacteria. The settings on record: for MIC Average Bacteria Gram (+): average over Gram (+) strains; for TI Bacteria Gram (+), HC50/MIC average: first value of the cell, a single value holds for HC50 and IC50 (400 µM used); for TI Bacteria Gram (+), IC50/MIC average: second value of the cell, HeLa IC50 based. The procedure: (§3) The MIC against bacterial strains was determined by the modified broth microtiter dilution method, following the procedures proposed by R.E.W. Hancock Laboratory for testing antimicrobial peptides. The target strains Escherichia coli ATCC 35218, Pseudomonas aeruginosa ATCC 27853, Enterococcus faecalis ATCC 29212, and Staphylococcus aureus ATCC 25923 belong to the American Type Culture Collection (ATCC). The Methicillin-Resistant Staphylococcus aureus BSF FBCB1313 strain (MRSA) was provided by the Clinical Bacteriology Section of FBCB-UNL. All strains were activated by culture for 24 h at 37 °C in Mueller-Hinton Broth (MHB) (Biokar Diagnostics, Cedex, France). Each inoculum was taken and adjusted to a cellular concentration of 5 × 10^5 colony-forming units (CFU)/mL in diluted MHB. All the peptides were dissolved in bovine serum albumin buffer with the addition of 0.01% acetic acid; 100 µL of each inoculum was added to 11 µL of peptide solution in serial 2-fold dilutions and were incubated for 18–24 h at 37 °C. The MIC was the lowest peptide concentration that inhibited visible growth of each bacterial strain. The test was conducted in triplicate.
(§4) The TI is defined as the relationship between the concentration that caused 50% of hemolysis (HC50) or a 50% reduction in HeLa cell viability and the MIC. Thus, higher TI values indicate greater antimicrobial specificity. […] The average MIC for each peptide against different microorganism groups was used to calculate the TI value.

For data set [9], the system named is Gram (−) bacteria. The settings on record: for MIC Average Bacteria Gram (−): average over Gram (−) strains; for TI Bacteria Gram (−), HC50/MIC average: first value of the cell, a single value holds for HC50 and IC50 (400 µM used); for TI Bacteria Gram (−), IC50/MIC average: second value of the cell, HeLa IC50 based. The procedure:
as §3, §4

Data set [10] deals with Yeast. Conditions: for MIC Average Yeast: 24 h; for TI Yeast, HC50/MIC average: first value of the cell, a single value holds for HC50 and IC50 (400 µM used); for TI Yeast, IC50/MIC average: second value of the cell, HeLa IC50 based. The procedure:
Each inoculum was taken and the cellular concentration was adjusted to 2 × 10^3 CFU/mL in Sabouraud Dextrose Broth (SDB) (Biokar Diagnostics, Cedex, France). Next, 50 µL of these inocula was added to 50 µL of peptide solution in serial 2-fold dilutions. […] The MIC was considered the lowest peptide concentration that inhibited visible growth of each yeast strain. The test was conducted in triplicate.
as §4

In data set [11] the test system is Human erythrocytes. Briefly: Hemolysis assay. The data set is classed as cell-based. The settings on record: human erythrocytes 0.4% (v/v), 37 °C, 60 min, 6.25 to 400 µM. As for the experimental part: Hemolytic activity was determined using red blood cells and the hemoglobin released was measured at 405 nm. The percentage of hemolysis corresponding to the synthetic compounds is shown in Figure 1 while the HC50 values are provided in Table 3. […] Substitutions by N-methyl and D-amino acids reduced the hemolytic activity of the peptides and lipopeptides. […] For all the peptides and most of the lipopeptides, the HC50 values exceeded 400 μM. Indeed, the HC50 values were lower only for C10:0-A2(9-NMeLys) and C10:0-A2, which were around 300 and 200 μM, respectively.
Erythrocyte lysis was determined using the following previously optimized protocols. Human erythrocytes from a healthy voluntary donor were isolated by centrifugation (3000 rpm for 10 min) after washing three times with Physiological Solution (PS). Erythrocyte solutions were prepared at a concentration of 0.4% (v/v) in PS. Test tubes containing 200 µL of erythrocyte solution were incubated at 37 °C for 60 min with 200 µL of peptide solution at concentrations ranging from 6.25 to 400 µM. After centrifugation at 3000 rpm for 5 min, supernatant absorbance was measured at 405 nm. Lysis induced by 1% Triton X-100 was taken as a 100% reference value.

Data set [12] relates to HeLa cells. Conditions: 24 h. The procedure:
We assessed the cytotoxicity of the compounds synthesized using HeLa cells.
The 3–4,5-dimethylthiazol-2,5-biphenyl tetrazolium bromide (MTT) cell viability assay was used to assess the cytotoxic activity of synthetic compounds against the human HeLa line. HeLa cells were seeded in 96-well plates at 1 × 10^5 cells/well, in which the peptide solution was added at different concentrations (3.125–400 μM) for 24 h of incubation. Next, MTT reagent (Sigma-Aldrich, St. Louis, MO, USA) was added, and the cells were incubated for 2 h. Then, 100 μL of dimethylsulfoxide (DMSO) was added to each well to dissolve formazan crystals, and the plates were read at 595 nm.

Data set [13] relates to S. aureus RM * SA1 (Methicillin-resistant Staphylococcus aureus). Conditions: S. aureus RM * SA1 (MRSA).

As to `CCCCCCCCCC(=O)N[C@H](C(=O)N[C@@H](CCCCN)C(=O)N[C@@H](CCC(N)=O)C(=O)N[C@H](C(=O)N[C@@H](CCCCN)C(=O)N[C@@H](CCCCN)C(=O)N[C@@H](CC(C)C)C(=O)N(C)[C@@H](Cc1ccccc1)C(=O)N[C@@H](CCCCN)C(=O)N[C@@H](CCCCN)C(N)=O)C(C)C)[C@@H](C)CC` [C10:0-A2(8-NMePhe), C10:0-IKQVKKL(NMe-F)KK-NH2] (Decanoyl-IKQVKKL[NMeF]KK-NH2), the CMC in data set [1] is on record as 2.01 mM. The MIC in [2] came to 11.2 µM (≈ 16 µg/mL); in [3] it was 5.6 µM (≈ 7.99 µg/mL); in data set [4], 2.8 µM (≈ 4 µg/mL); in data set [5], 11.2 µM (≈ 16 µg/mL); in data set [6] it was 179.5 µM (≈ 256 µg/mL); in data set [7], 179.5 µM (≈ 256 µg/mL). This compound also came in with an MIC in data set [13] of 5.6 µM (≈ 7.99 µg/mL). In [8], the “MIC Average Bacteria Gram (+)” value was determined as 6.5 µM (≈ 9.28 µg/mL). The “TI Bacteria Gram (+), HC50/MIC average” value in data set [8] was determined as 61.5. In data set [9], the “MIC Average Bacteria Gram (−)” value was found to be 8.4 µM (≈ 12 µg/mL). Also, the “TI Bacteria Gram (−), HC50/MIC average” value in [9] was found to be 47.6. Also, in data set [10], the “MIC Average Yeast” value was 179.5 µM (≈ 256 µg/mL). For the same compound, the “TI Yeast, HC50/MIC average” value in [10] stood at 2.2. In addition, the “HC50 ± SD” value in data set [11] is greater than 400 µM. Besides, the half-maximal inhibitory concentration (IC50) in data set [12] was greater than 400 µM.
Regarding `CC(C)C[C@H](NC(=O)[C@H](CCCCN)NC(=O)[C@H](CCCCN)NC(=O)[C@H](Cc1ccccc1)N(C)C(=O)[C@H](CC(C)C)NC(=O)[C@H](CCCCN)NC(=O)[C@H](CCCCN)NC(=O)[C@H](Cc1ccccc1)N(C)C(=O)[C@H](CC(C)C)NC(=O)[C@@H](N)CCCCN)C(=O)N[C@@H](Cc1ccccc1)C(=O)N[C@@H](CCCCN)C(N)=O` [TA4(3,7-NMePhe), KL(NMeF)KKL(NMeF)KKLFK-NH2] (H-KL[NMeF]KKL[NMeF]KKLFK-NH2; N-terminus assumed), the MIC in data set [2] was 5.0 µM (≈ 7.98 µg/mL); in [3], 1.2 µM (≈ 1.91 µg/mL); in data set [4], 5.0 µM (≈ 7.98 µg/mL); in [5], 40.0 µM (≈ 63.8 µg/mL); in data set [6], 80.2 µM (≈ 128 µg/mL); in data set [7], 80.2 µM (≈ 128 µg/mL). Also, in [13], the MIC stood at 10.0 µM (≈ 16 µg/mL). Besides, the “TI Bacteria Gram (+), HC50/MIC average” value in data set [8] is 14.1. The “TI Bacteria Gram (+), IC50/MIC average” value in data set [8] was determined as 3.1. For the same compound, the “MIC Average Bacteria Gram (−)” value in data set [9] is recorded as 3.1 µM (≈ 4.94 µg/mL). The “TI Bacteria Gram (−), HC50/MIC average” value in [9] was found to be 129.0. Moreover, in data set [9], the “TI Bacteria Gram (−), IC50/MIC average” value came out at 27.9. In addition, the “MIC Average Yeast” value in [10] turned out to be 80.2 µM (≈ 128 µg/mL). Further, the “TI Yeast, HC50/MIC average” value in [10] worked out at 5.0. For the same compound, the “TI Yeast, IC50/MIC average” value in data set [10] is given as 1.1. Moreover, the “HC50 ± SD” value in data set [11] is listed as greater than 400 µM. For the same compound, the IC50 in data set [12] is 86.6 ± 7.35 µM; in [12] (read-out: IC50 ± SD, HeLa cells, MTT, 3.125–400 μM), ~86 µM and 86 µM.
Consider `CCCCCCCCCC(=O)N[C@H](C(=O)N[C@@H](CCCCN)C(=O)N[C@@H](CCC(N)=O)C(=O)N[C@H](C(=O)N[C@@H](CCCCN)C(=O)N[C@@H](CCCCN)C(=O)N[C@@H](CC(C)C)C(=O)N[C@@H](Cc1ccccc1)C(=O)N(C)[C@@H](CCCCN)C(=O)N[C@@H](CCCCN)C(N)=O)C(C)C)[C@@H](C)CC` [C10:0-A2(9-NMeLys), C10:0-IKQVKKLF(NMe-K)K-NH2] (Decanoyl-IKQVKKLF[NMeK]K-NH2), for which the CMC in data set [1] is 3.90 mM. The MIC in data set [2] turned out to be 2.8 µM (≈ 4 µg/mL); in data set [3], 0.7 µM (≈ 0.999 µg/mL); in [4], 2.8 µM (≈ 4 µg/mL); in data set [5], 5.6 µM (≈ 7.99 µg/mL); in data set [6], 89.7 µM (≈ 128 µg/mL); in data set [7] it was 179.5 µM (≈ 256 µg/mL). The MIC in data set [13] was 2.8 µM (≈ 4 µg/mL). Further, the “MIC Average Bacteria Gram (+)” value in [8] was determined as 3.7 µM (≈ 5.28 µg/mL). Moreover, in [8], the “TI Bacteria Gram (+), HC50/MIC average” value worked out at 80.7. In addition, the “TI Bacteria Gram (+), IC50/MIC average” value in [8] came out at 108.1. In addition, the “MIC Average Bacteria Gram (−)” value in data set [9] is 1.8 µM (≈ 2.57 µg/mL). The “TI Bacteria Gram (−), HC50/MIC average” value in data set [9] came out at 165.8. Moreover, the “TI Bacteria Gram (−), IC50/MIC average” value in [9] is on record as 222.2. In addition, the “MIC Average Yeast” value in data set [10] is listed as 134.6 µM (≈ 192 µg/mL). Moreover, the “TI Yeast, HC50/MIC average” value in [10] was found to be 2.2. The “TI Yeast, IC50/MIC average” value in data set [10] is listed as 3.0. The compound further yielded an IC50 in data set [12] greater than 400 µM.

Source of the values: paper PMC10215143, “D- and N-Methyl Amino Acids for Modulating the Therapeutic Properties of Antimicrobial Peptides and Lipopeptides” (Antibiotics, 2023).
